We go through 25 compounds from patent US12649751B2 (Arcus Biosciences, Inc., priority 2022, dated 2026).

Like-named read-outs stand apart in the source and are kept apart here. A value given as a limit tells only on which side of the number the result lay.

The subject of assay [1] is p-SLP-76 (Ser376) in Jurkat cells. In words: pSLP76 Cellular Assay (AlphaLISA SureFire Ultra p-SLP-76 (Ser376), anti-CD3 activated Jurkat cells). In kind it is cell-based. The conditions noted are these: Homo sapiens; Jurkat cells, anti-CD3 stimulation, pSLP76; read-out: Cellular Potency. Put shortly:
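Jurkat cells, serum-starved overnight in Opti-MEM then in HBSS, preincubated 1 h at 37 °C with 22-point 2-fold compound dilutions, then stimulated with anti-CD3 (0.025 mg/ml added solution) for 45 min. Lysate p-SLP-76 (Ser376) measured by AlphaLISA at 570 nm; IC50 from 4-parameter logistic fit.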

The next assay concerns the target HPK1 (Homo sapiens, UniProt Q92918). In words: HPK1 Biochemical Assay (ADP-Glo luminescence; low ATP 10 μM or high ATP 200 μM). On the technique in general: ADP-Glo first removes unused ATP, then detects ADP through luciferase.
The mark [2] stands for this setting: 2 nM HPK1, 10 μM ATP, read-out: Biochemical Potency (low ATP).
Setting [3] is: 5 nM HPK1, 200 μM ATP, read-out: Biochemical Potency (high ATP).

Chain of HPK1 (Q92918 whole entry, species assumed): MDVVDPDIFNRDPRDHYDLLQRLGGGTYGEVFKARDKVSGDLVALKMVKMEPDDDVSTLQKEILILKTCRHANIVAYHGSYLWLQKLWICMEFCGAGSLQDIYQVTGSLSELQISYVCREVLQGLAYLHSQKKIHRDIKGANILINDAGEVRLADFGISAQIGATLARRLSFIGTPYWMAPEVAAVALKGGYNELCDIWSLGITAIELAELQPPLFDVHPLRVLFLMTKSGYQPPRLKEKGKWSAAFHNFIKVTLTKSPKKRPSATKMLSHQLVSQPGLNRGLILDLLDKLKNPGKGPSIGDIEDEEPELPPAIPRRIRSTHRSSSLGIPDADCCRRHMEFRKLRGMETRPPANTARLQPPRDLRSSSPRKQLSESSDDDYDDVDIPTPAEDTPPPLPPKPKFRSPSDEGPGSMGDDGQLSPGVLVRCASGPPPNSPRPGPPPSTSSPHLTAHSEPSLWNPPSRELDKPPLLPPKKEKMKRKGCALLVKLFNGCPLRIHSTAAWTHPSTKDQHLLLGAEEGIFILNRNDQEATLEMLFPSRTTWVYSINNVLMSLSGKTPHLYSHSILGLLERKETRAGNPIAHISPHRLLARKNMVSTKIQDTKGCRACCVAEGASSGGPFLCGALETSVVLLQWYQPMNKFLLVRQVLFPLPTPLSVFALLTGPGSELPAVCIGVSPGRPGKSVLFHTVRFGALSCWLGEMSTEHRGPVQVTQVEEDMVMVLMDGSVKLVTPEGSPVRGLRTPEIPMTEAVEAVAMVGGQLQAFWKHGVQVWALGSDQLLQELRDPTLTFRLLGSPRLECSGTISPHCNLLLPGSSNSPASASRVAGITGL

For `Cc1ccnn1-c1nc2cc(Nc3cccc(N4C[C@@H]5C[C@H]4CN5C)n3)ncc2s1` [Example 205, N-[2-(5-Methyl-1H-pyrazol-1-yl)-[1,3]thiazolo[5,4-c]pyridin-6-yl]-6-[(1S,4S)-5-methyl-2,5-diazabicyclo[2.2.1]heptan-2-yl]pyridin-2-amine], the IC50 in assay [1] was 100 to 1000 nM; on HPK1 (setting [2]), less than 100 nM; at HPK1 (setting [3]), less than 100 nM.
`CN1C[C@@H]2C[C@H]1CN2c1cccc(Nc2cc3nc(-n4cccn4)sc3cn2)n1` [Example 206, 6-[(1S,4S)-5-Methyl-2,5-diazabicyclo[2.2.1]heptan-2-yl]-N-[2-(1H-pyrazol-1-yl)-[1,3]thiazolo[5,4-c]pyridin-6-yl]pyridin-2-amine]: the IC50 in assay [1] was 100 to 1000 nM; on HPK1 (setting [2]) it was less than 100 nM.
Consider `Cc1ccnn1-c1nc2cc(Nc3ccc(C4CCOCC4)c(CN[C@H]4CCOC4)n3)ncc2s1` [Example 209, N-[2-(5-Methyl-1H-pyrazol-1-yl)-[1,3]thiazolo[5,4-c]pyridin-6-yl]-5-(oxan-4-yl)-6-({[(3S)-oxolan-3-yl]amino}methyl)pyridin-2-amine], for which the IC50 in assay [1] is 1000 to 5000 nM; at HPK1 (setting [2]) it was less than 100 nM.
The like results for `c1cnn(-c2nc3cc(Nc4ccc(C5CCOCC5)c(CN5CCCC5)n4)ncc3s2)c1` [Example 210, 5-(Oxan-4-yl)-N-[2-(1H-pyrazol-1-yl)-[1,3]thiazolo[5,4-c]pyridin-6-yl]-6-[(pyrrolidin-1-yl)methyl]pyridin-2-amine] were, in that order, 100 to 1000 nM and less than 100 nM.
On to `Cc1cccnc1-c1nc2cc(Nc3ccc(C4CCOCC4)c(CN4CCCC4)n3)ncc2s1` [Example 212, N-[2-(3-Methylpyridin-2-yl)-[1,3]thiazolo[5,4-c]pyridin-6-yl]-5-(oxan-4-yl)-6-[(pyrrolidin-1-yl)methyl]pyridin-2-amine], for which the IC50 (in assay [1]; at HPK1 (setting [2])) was less than 100 nM each time.
`Cc1cccnc1-c1nc2cc(Nc3ccc(C4CCOCC4)c(CN4CC[C@H](F)C4)n3)ncc2s1` [Example 214, 6-{[(3S)-3-Fluoropyrrolidin-1-yl]methyl}-N-[2-(3-methylpyridin-2-yl)-[1,3]thiazolo[5,4-c]pyridin-6-yl]-5-(oxan-4-yl)pyridin-2-amine]: the IC50 in assay [1] was 100 to 1000 nM; at HPK1 (setting [2]), less than 100 nM.
Regarding `c1cc(-c2nc3cc(Nc4ccc(C5CCOCC5)c(CN5CCCC5)n4)ncc3s2)ccn1` [Example 216, 5-(Oxan-4-yl)-N-[2-(pyridin-4-yl)-[1,3]thiazolo[5,4-c]pyridin-6-yl]-6-[(pyrrolidin-1-yl)methyl]pyridin-2-amine], the IC50 (in assay [1]; on HPK1 (setting [2])) was less than 100 nM each time.
As to `Cn1ccnc1-c1nc2cc(Nc3ccc(C4CCOCC4)c(CN4CCCC4)n3)ncc2s1` [Example 217, N-[2-(1-Methyl-1H-imidazol-2-yl)-[1,3]thiazolo[5,4-c]pyridin-6-yl]-5-(oxan-4-yl)-6-[(pyrrolidin-1-yl)methyl]pyridin-2-amine], the IC50 (in assay [1]; at HPK1 (setting [2])) was less than 100 nM in each case.
As for `Cc1cc(-c2nc3cc(Nc4ccc(C5CCOCC5)c(CN5CCC(F)(F)C5)n4)ncc3s2)ccn1` [Example 220, 6-[(3,3-Difluoropyrrolidin-1-yl)methyl]-N-[2-(2-methylpyridin-4-yl)-[1,3]thiazolo[5,4-c]pyridin-6-yl]-5-(oxan-4-yl)pyridin-2-amine], the figures for the IC50 (in assay [1]; on HPK1 (setting [2])) were 100 to 1000 nM and less than 100 nM, respectively.
The like results for `Cc1cc(-c2nc3cc(Nc4ccc(C5CCOCC5)c(CN[C@H]5CCOC5)n4)ncc3s2)ccn1` [Example 221, N-[2-(2-Methylpyridin-4-yl)-[1,3]thiazolo[5,4-c]pyridin-6-yl]-5-(oxan-4-yl)-6-({[(3S)-oxolan-3-yl]amino}methyl)pyridin-2-amine] were, in that order, 100 to 1000 nM and less than 100 nM.
For the compound `FC(F)n1cc(-c2nc3cc(Nc4ccc(C5CCOCC5)c(CN5CCCC5)n4)ncc3s2)cn1` [Example 224, N-{2-[1-(Difluoromethyl)-1H-pyrazol-4-yl]-[1,3]thiazolo[5,4-c]pyridin-6-yl}-5-(oxan-4-yl)-6-[(pyrrolidin-1-yl)methyl]pyridin-2-amine], the IC50 is 1000 to 5000 nM in assay [1] and less than 100 nM on HPK1 (setting [2]).
The matching figures for `c1cncc(-c2nc3cc(Nc4ccc(C5CCOCC5)c(CN5CCCC5)n4)ncc3s2)c1` [Example 225, 5-(Oxan-4-yl)-N-[2-(pyridin-3-yl)-[1,3]thiazolo[5,4-c]pyridin-6-yl]-6-[(pyrrolidin-1-yl)methyl]pyridin-2-amine]: 100 to 1000 nM and less than 100 nM.
The matching figures for `CC(C)c1ccc(Nc2cc3nc(-c4cnn(C)c4)sc3cn2)nc1CN1CCCC1` [Example 227, N-[2-(1-Methyl-1H-pyrazol-4-yl)-[1,3]thiazolo[5,4-c]pyridin-6-yl]-5-(propan-2-yl)-6-[(pyrrolidin-1-yl)methyl]pyridin-2-amine]: 100 to 1000 nM and less than 100 nM.
As to `C[C@H]1COCCN1c1nc2cc(Nc3ccc(C4CCOCC4)c(CN4CCCC4)n3)ncc2s1` [Example 235, N-{2-[(3S)-3-Methylmorpholin-4-yl]-[1,3]thiazolo[5,4-c]pyridin-6-yl}-5-(oxan-4-yl)-6-[(pyrrolidin-1-yl)methyl]pyridin-2-amine], the IC50 was 1000 to 5000 nM in assay [1] and less than 100 nM on HPK1 (setting [2]).
For `Cc1cc(-c2nc3cc(Nc4ccc(C5CCOCC5)c(N5C[C@@H]6CCN(C)[C@@H]6C5)n4)ncc3s2)ccn1` [Example 248, 6-[(3aS,6aS)-1-Methyl-octahydropyrrolo[3,4-b]pyrrol-5-yl]-N-[2-(2-methylpyridin-4-yl)-[1,3]thiazolo[5,4-c]pyridin-6-yl]-5-(oxan-4-yl)pyridin-2-amine], the IC50 (in assay [1]; at HPK1 (setting [2]); on HPK1 (setting [3])) was less than 100 nM in each case.
As for `Cc1cccnc1-c1nc2cc(Nc3cc(C4CCOCC4)nc(N4C[C@@H]5C[C@H]4CN5C)n3)ncc2s1` [Example 249, 2-[(1S,4S)-5-Methyl-2,5-diazabicyclo[2.2.1]heptan-2-yl]-N-[2-(3-methylpyridin-2-yl)-[1,3]thiazolo[5,4-c]pyridin-6-yl]-6-(oxan-4-yl)pyrimidin-4-amine], the IC50 is 100 to 1000 nM in assay [1], less than 100 nM on HPK1 (setting [2]) and less than 100 nM on HPK1 (setting [3]).
On to `Cc1cc(-c2nc3cc(Nc4ccc(C5CCOC5)c(CN5CCCC5)n4)ncc3s2)ccn1` (centres unmarked) [Example 253, N-[2-(2-Methylpyridin-4-yl)-[1,3]thiazolo[5,4-c]pyridin-6-yl]-5-(oxolan-3-yl)-6-[(pyrrolidin-1-yl)methyl]pyridin-2-amine], for which the IC50 in assay [1] was 100 to 1000 nM; at HPK1 (setting [2]), less than 100 nM.
The matching figures for `c1cncc(-c2nc3cc(Nc4ccc(C5CCOC5)c(CN5CCCC5)n4)ncc3s2)c1` (centres unmarked) [Example 254, 5-(Oxolan-3-yl)-N-[2-(pyridin-3-yl)-[1,3]thiazolo[5,4-c]pyridin-6-yl]-6-[(pyrrolidin-1-yl)methyl]pyridin-2-amine]: 100 to 1000 nM and less than 100 nM.
The like results for `Cc1cccc(F)c1-c1nc2cc(Nc3ccc(C4CCOC4)c(CN(C)C)n3)ncc2s1` (centres unmarked) [Example 255, 6-[(Dimethylamino)methyl]-N-[2-(2-fluoro-6-methylphenyl)-[1,3]thiazolo[5,4-c]pyridin-6-yl]-5-(oxolan-3-yl)pyridin-2-amine] were, in that order, 100 to 1000 nM and less than 100 nM.
The like results for `Cc1ccnn1-c1nc2cc(Nc3ccc(C4CCOC4)c(CN4CCCC4)n3)ncc2s1` (centres unmarked) [Example 256, N-[2-(5-Methyl-1H-pyrazol-1-yl)-[1,3]thiazolo[5,4-c]pyridin-6-yl]-5-(oxolan-3-yl)-6-[(pyrrolidin-1-yl)methyl]pyridin-2-amine] were, in that order, less than 100 nM and less than 100 nM.
Take `CN(C)Cc1nc(Nc2cc3nc(-c4c(F)cccc4F)sc3cn2)ccc1C1CCOC1` (centres unmarked) [Example 257, N-[2-(2,6-Difluorophenyl)-[1,3]thiazolo[5,4-c]pyridin-6-yl]-6-[(dimethylamino)methyl]-5-(oxolan-3-yl)pyridin-2-amine]: the IC50 was 1000 to 5000 nM in assay [1] and less than 100 nM on HPK1 (setting [2]).
As for `Cc1cccnc1-c1nc2cc(Nc3ccc(C4CC4)c(CN4CCCC4)n3)ncc2s1` [Example 262, 5-Cyclopropyl-N-[2-(3-methylpyridin-2-yl)-[1,3]thiazolo[5,4-c]pyridin-6-yl]-6-[(pyrrolidin-1-yl)methyl]pyridin-2-amine], the IC50 in assay [1] was 1000 to 5000 nM; at HPK1 (setting [2]) it was less than 100 nM.
As to `CN1C[C@@H]2C[C@H]1CN2c1nccc(Nc2cc3nc(-c4ccnc(N5CC[C@@H](O)C5)c4)sc3cn2)n1` [Example 264, (3R)-1-{4-[6-({2-[(1S,4S)-5-Methyl-2,5-diazabicyclo[2.2.1]heptan-2-yl]pyrimidin-4-yl}amino)-[1,3]thiazolo[5,4-c]pyridin-2-yl]pyridin-2-yl}pyrrolidin-3-ol], the IC50 is 100 to 1000 nM in assay [1] and less than 100 nM on HPK1 (setting [2]).
The like results for `CN1C[C@@H]2C[C@H]1CN2c1nccc(Nc2cc3nc(-c4ccnc(N5CCOCC5)c4)sc3cn2)n1` [Example 268, 2-[(1S,4S)-5-Methyl-2,5-diazabicyclo[2.2.1]heptan-2-yl]-N-{2-[2-(morpholin-4-yl)pyridin-4-yl]-[1,3]thiazolo[5,4-c]pyridin-6-yl}pyrimidin-4-amine] were, in that order, 100 to 1000 nM and less than 100 nM.
The like results for `CC(C)(N)c1nc(Nc2cc3nc(-c4c(F)cccc4F)sc3cn2)ccc1N1CCOCC1` [Example 269, 6-(2-Aminopropan-2-yl)-N-[2-(2,6-difluorophenyl)-[1,3]thiazolo[5,4-c]pyridin-6-yl]-5-(morpholin-4-yl)pyridin-2-amine] were, in that order, 1000 to 5000 nM and less than 100 nM.
